Paper PMC10044120, “Potent and selective covalent inhibition of the papain-like protease from SARS-CoV-2” (Nature Communications, 2023)
“And” between values parts separate entries of the source, which are not always exact repeats. Equal values may be shown once. Read-outs that look alike come from different tables or passages of the source.

Tests used:
[1] = system: Vero E6 cells; settings: African green monkey, 48 h
[2] = target: T1, PLpro from SARS-CoV-2 (Severe acute respiratory syndrome coronavirus 2, UniProt P0DTD1); test: biochemical; format: biochemical; design: mean (kobs plot, Supplementary Figure 6 II): unit: min^-1; settings: for Time dep. (time-dependent inhibition): fluorogenic peptide assay, varied preincubation time
[3] = system: SARS-CoV-2 isolate USA-WA1/2020; settings: for EC50 (cytopathic effect): SARS-CoV-2-infected Vero E6 cells, 48 h; for inhibition: read-out: cytopathic effect, % cell viability, duplicate wells
[4] = target: T1, PLpro from SARS-CoV-2; test: biochemical; format: biochemical; settings: for remaining activity at 0.06 µM: inhibitor 0.06 uM; for remaining activity at 0.2 µM: inhibitor 0.20 uM; for remaining activity at 6.34 µM: inhibitor 6.34 uM; for remaining activity at 20 µM: inhibitor 20.00 uM; for IC50: after 30-min incubation; for remaining activity at 0.02 µM: inhibitor 0.02 uM; for remaining activity at 2.01 µM: inhibitor 2.01 uM; for remaining activity at 200 µM: inhibitor 200.00 uM; for remaining activity at 100 µM: inhibitor 100.00 uM; for remaining activity at […]: read-out: % Plpro activity
[5] = in vitro; settings: African green monkey; for viability at 48 h, 2.08 µM / viability at 48 h, 16.67 µM / viability at 48 h, 8.33 µM / viability at 48 h, 33.33 µM / viability at 48 h, 16.65 µM: cytotoxicity, %cell viability
[6] = system: SARS-CoV-2 isolate USA-WA1/2020; test: microbe, parasite or virus in culture; settings: for inhibition at […]: Severe acute respiratory syndrome coronavirus 2, Vero C1008, read-out: cytopathic effect, % cell viability; for inhibition at 2.08 µM: Severe acute respiratory syndrome coronavirus 2, Vero C1008, read-out: cytopathic effect, % cell viability, [inhibitor] 2.08 uM
[7] = target: PLpro (Severe acute respiratory syndrome coronavirus 2, UniProt P0DTD1); test: Intact protein ESI-MS to assess covalent adduct formation; format: binding, SARS-CoV-2; design: unit not given here
[8] = Metabolic stability in mouse liver microsomes; settings: CD-1, mouse
[9] = Metabolic stability in rat liver S9 fraction; settings: Sprague-Dawley
[10] = Metabolic stability in rat liver microsomes; settings: Sprague-Dawley
[11] = Metabolic stability in mouse liver S9 fraction; settings: CD-1, mouse
[12] = purified PLpro, Z-RLRGG-AMC substrate

## C[C@@H](NC(=O)c1ccccc1CCC(=O)NNC(=O)C(C#N)=CC1CC1)c1cccc2ccccc12 [Compound 13, (R)-2-(3-(2-(2-cyano-3-cyclopropylacryloyl)hydrazineyl)-3-oxopropyl)-N-(1-(naphthalen-1-yl)ethyl)benzamide]
[1]; 2.08 µM
  cytotoxicity, %cell viability: 72.90%
[1]; 16.67 µM
  cytotoxicity, %cell viability: 0.71%
[2]
  Time dep. (time-dependent inhibition): not and No
[3]
  EC50 (cytopathic effect): No CPE
[4]; 0.5 h
  remaining activity at 0.06 µM: 101%
  remaining activity at 0.2 µM: 107%
  remaining activity at 6.34 µM: 109%
  remaining activity at 20 µM: 90.5%
[4]; [12]
  IC50: > 200 µM
[5]
  viability at 48 h, 2.08 µM: 83.5%
  viability at 48 h, 16.67 µM: 0.88%

## C[C@@H](NC(=O)c1ccccc1CCC(=O)NNC(=O)CC#N)c1cccc2ccccc12 [Compound 11, (R)-2-(3-(2-(2-cyanoacetyl)hydrazineyl)-3-oxopropyl)-N-(1-(naphthalen-1-yl)ethyl)benzamide]
[1]; 2.08 µM
  cytotoxicity, %cell viability: 98.90%
[1]; 8.33 µM
  cytotoxicity, %cell viability: 91.20%
[1]; 16.67 µM
  cytotoxicity, %cell viability: 87.90%
[1]; 33.33 µM
  cytotoxicity, %cell viability: 80.50%
[2]
  Time dep. (time-dependent inhibition): not and No
[3]
  EC50 (cytopathic effect): No CPE
[3]; [inhibitor] 2.08 uM, 2.08 µM
  inhibition: 4.7%
[4]; 0.5 h
  remaining activity at 0.02 µM: 84.4%
  remaining activity at 0.2 µM: 89.9%
  remaining activity at 2.01 µM: 71.3%
  remaining activity at 6.34 µM: 46.4%
  remaining activity at 20 µM: 41.4%
  remaining activity at 200 µM: 5.83%
[4]; [12]
  IC50: 8 µM
[5]
  viability at 48 h, 2.08 µM: 101%
  viability at 48 h, 8.33 µM: 94%
  viability at 48 h, 16.67 µM: 88.6%
  viability at 48 h, 33.33 µM: 80.8%
[6]
  inhibition at […]: 9.7%
[6]; duplicate wells
  inhibition at 2.08 µM: 8%

## CC(=O)Nc1ccc(CCC(=O)NNC(=O)CCl)c(C(=O)N[C@H](C)c2cccc3ccccc23)c1 [Compound 10, (R)-5-acetamido-2-(3-(2-(2-chloroacetyl)hydrazineyl)-3-oxopropyl)-N-(1-(naphthalen-1-yl)ethyl)benzamide]
[7]
  Measured adduct mass: 460
[1]; 2.08 µM
  cytotoxicity, %cell viability: 80.200%
[1]; 8.33 µM
  cytotoxicity, %cell viability: 79.780%
[1]; 16.67 µM
  cytotoxicity, %cell viability: 73.170%
[1]; 33.33 µM
  cytotoxicity, %cell viability: 66.030%
[3]; [inhibitor] 2.08 uM, 2.08 µM
  inhibition: 1.32%
[4]; 0.5 h
  remaining activity at 0.02 µM: 90.3%
  remaining activity at 0.06 µM: 102%
  remaining activity at 2.01 µM: 80.3%
  remaining activity at 6.34 µM: 37.2%
[4]; […]
  IC50: 4.4 µM
[5]
  viability at 48 h, 2.08 µM: 92.2%
  viability at 48 h, 8.33 µM: 84.4%
  viability at 48 h, 16.67 µM: 81.5%
  viability at 48 h, 33.33 µM: 73.4%
[6]; duplicate wells
  inhibition at 2.08 µM: 2.2%

## C#CC(=O)NNC(=O)CCc1ccccc1C(=O)N[C@H](C)c1cccc2ccccc12 [Compound 12, (R)-N-(1-(naphthalen-1-yl)ethyl)-2-(3-oxo-3-(2-propioloylhydrazineyl)propyl)benzamide]
[1]; 16.67 µM
  cytotoxicity, %cell viability: 0.55%
[1]; 33.33 µM
  cytotoxicity, %cell viability: 0.51%
[2]
  kinact/KI: 4100 M⁻¹ s⁻¹
  Time dep. (time-dependent inhibition): Time-dependent inhibition was observed and Yes
[2]; 5 min, read-out: PLpro activity after preincubation, inhibitor 0.2 uM, preincubation 5 min
  remaining activity at 0.2 µM: 80%
[2]; 5 min, read-out: PLpro activity after preincubation, inhibitor 0.5 uM, preincubation 5 min
  remaining activity at 0.5 µM: 68.1%
[2]; 5 min, read-out: PLpro activity after preincubation, inhibitor 0.6 uM, preincubation 5 min
  remaining activity at 0.6 µM: 59%
[2]; 5 min, read-out: PLpro activity after preincubation, inhibitor 0.7 uM, preincubation 5 min
  remaining activity at 0.7 µM: 46.3%
[2]; 10 min, read-out: PLpro activity after preincubation, inhibitor 0.2 uM, preincubation 10 min
  remaining activity at 0.2 µM: 69.8%
[2]; 10 min, read-out: PLpro activity after preincubation, inhibitor 0.5 uM, preincubation 10 min
  remaining activity at 0.5 µM: 40.2%
[2]; 10 min, read-out: PLpro activity after preincubation, inhibitor 0.6 uM, preincubation 10 min
  remaining activity at 0.6 µM: 41.8%
[2]; 10 min, read-out: PLpro activity after preincubation, inhibitor 0.7 uM, preincubation 10 min
  remaining activity at 0.7 µM: 29.5%
[2]; 0.5 h, read-out: PLpro activity after preincubation, inhibitor 0.2 uM, preincubation 30 min
  remaining activity at 0.2 µM: 87.5%
[2]; 0.5 h, read-out: PLpro activity after preincubation, inhibitor 0.3 uM, preincubation 30 min
  remaining activity at 0.3 µM: 71%
[2]; 0.5 h, read-out: PLpro activity after preincubation, inhibitor 0.5 uM, preincubation 30 min
  remaining activity at 0.5 µM: 14.4%
[2]; 0.5 h, read-out: PLpro activity after preincubation, inhibitor 0.7 uM, preincubation 30 min
  remaining activity at 0.7 µM: 7.89%
[2]; 1 h, read-out: PLpro activity after preincubation, inhibitor 0.2 uM, preincubation 60 min
  remaining activity at 0.2 µM: 83.5%
[2]; 1 h, read-out: PLpro activity after preincubation, inhibitor 0.6 uM, preincubation 60 min
  remaining activity at 0.6 µM: 2.72%
[2]; […], read-out: PLpro activity after preincubation, inhibitor 0.2 uM, preincubation 15 min
  remaining activity at 0.2 µM: 82%
[2]; […], read-out: PLpro activity after preincubation, inhibitor 0.2 uM, preincubation 45 min
  remaining activity at 0.2 µM: 75.3%
[2]; […], read-out: PLpro activity after preincubation, inhibitor 0.2 uM, preincubation 90 min
  remaining activity at 0.2 µM: 60%
[2]; […], read-out: PLpro activity after preincubation, inhibitor 0.3 uM, preincubation 90 min
  remaining activity at 0.3 µM: 15.6%
[2]; […], read-out: PLpro activity after preincubation, inhibitor 0.5 uM, preincubation 15 min
  remaining activity at 0.5 µM: 34.6%
[2]; […], read-out: PLpro activity after preincubation, inhibitor 0.5 uM, preincubation 45 min
  remaining activity at 0.5 µM: 1.63%
[2]; […], read-out: PLpro activity after preincubation, inhibitor 0.6 uM, preincubation 15 min
  remaining activity at 0.6 µM: 27.5%
[2]; […], read-out: PLpro activity after preincubation, inhibitor 0.7 uM, preincubation 15 min
  remaining activity at 0.7 µM: 17.8%
[2]; inhibitor 0.20 uM
  mean (kobs plot, Supplementary Figure 6 II): 0.0069
[2]; inhibitor 0.30 uM
  mean (kobs plot, Supplementary Figure 6 II): 0.0173
[2]; inhibitor 0.5 uM
  mean (kobs plot, Supplementary Figure 6 II): 0.0760
[2]; inhibitor 0.6 uM
  mean (kobs plot, Supplementary Figure 6 II): 0.0965
[2]; inhibitor 0.7 uM
  mean (kobs plot, Supplementary Figure 6 II): 0.1287
[3]
  EC50 (cytopathic effect): No CPE
[4]; 0.5 h
  remaining activity at 0.06 µM: 75.9%
  remaining activity at 0.2 µM: 14.8%
  remaining activity at 200 µM: 2.39%
[4]; [12]
  IC50: 0.098 µM
[5]; CC50
  CC50 at 48 h: 1 to 5 µM
[5]
  viability at 48 h, 8.33 µM: 0.83%
  viability at 48 h, 16.67 µM: 0.57%
  viability at 48 h, 33.33 µM: 1.02%
[6]
  inhibition at […]: 6.23%

## CCC(CC)COC(=O)[C@H](C)N[P@](=O)(OC[C@H]1O[C@@](C#N)(c2ccc3c(N)ncnn23)[C@H](O)[C@@H]1O)Oc1ccccc1 [remdesivir, reference compound]
[3]; 5.00 uM
  % cell viability, cytopathic effect: 97.274%
[3]; 10.00 uM
  % cell viability, cytopathic effect: 97.073%
[3]; [inhibitor] 5.00 uM, 5 µM
  inhibition: 97.3%
[3]; [inhibitor] 10.00 uM, 10 µM
  inhibition: 97.1%
[6]; Severe acute respiratory syndrome coronavirus 2, Vero C1008, 48 h, read-out: EC50 (cytopathic effect)
  EC50: 0.74 µM
[6]; Severe acute respiratory syndrome coronavirus 2, Vero C1008, read-out: % cell viability, cytopathic effect, 5.00 uM
  viability at 5 µM: 102%
[6]; Severe acute respiratory syndrome coronavirus 2, Vero C1008, read-out: % cell viability, cytopathic effect, 10.00 uM
  viability at 10 µM: 101%
[6]; Severe acute respiratory syndrome coronavirus 2, Vero C1008, read-out: cytopathic effect, % cell viability, [inhibitor] 5.00 uM, duplicate wells
  inhibition at 5 µM: 102%
[6]; Severe acute respiratory syndrome coronavirus 2, Vero C1008, read-out: cytopathic effect, % cell viability, [inhibitor] 10.00 uM, duplicate wells
  inhibition at 10 µM: 101%

## CC(C)NCC(O)COc1cccc2ccccc12 (stereo not drawn) [propranolol, reference compound]
[8]
  half-life: 20 min
[9]
  half-life: 3 min
[10]
  half-life: 3 min
[11]
  half-life: 6 min

## COC(=O)CCc1ccccc1C(=O)N[C@H](C)c1cccc2ccccc12 [Compound 3, methyl (R)−3-(2-((1-(naphthalen-1-yl)ethyl)carbamoyl)phenyl)propanoate]
[1]; 2.08 µM
  cytotoxicity, %cell viability: 99.61%
[1]; 8.33 µM
  cytotoxicity, %cell viability: 97.36%
[1]; 16.65 µM
  cytotoxicity, %cell viability: 90.64%
[3]; [inhibitor] 2.08 uM, 2.08 µM
  inhibition: 8.63%
[4]; 0.5 h
  remaining activity at 100 µM: 78.6%
  remaining activity at […]: 119% and 108%
[5]
  viability at 48 h, 2.08 µM: 105%
  viability at 48 h, 8.33 µM: 93.2%
  viability at 48 h, 16.65 µM: 92%
[6]; duplicate wells
  inhibition at 2.08 µM: 7.81%

## C[C@@H](NC(=O)c1ccccc1CCC(=O)NN)c1cccc2ccccc12 [Compound 5, (R)-2-(3-hydrazineyl-3-oxopropyl)-N-(1-(naphthalen-1-yl)ethyl)benzamide]
[1]; 2.08 µM
  cytotoxicity, %cell viability: 100.12%
[1]; 8.33 µM
  cytotoxicity, %cell viability: 100.79%
[1]; 16.65 µM
  cytotoxicity, %cell viability: 89.16%
[2]
  Time dep. (time-dependent inhibition): No
[3]; [inhibitor] 2.08 uM, 2.08 µM
  inhibition: 7.12%
[3]; [inhibitor] 8.33 uM, 8.33 µM
  inhibition: 8.31%
[3]; [inhibitor] 16.65 uM, 16.65 µM
  inhibition: 2.6%
[4]; 0.5 h, inhibitor 19.50 uM
  remaining activity at 19.5 µM: 46.4%
[4]; 0.5 h
  remaining activity at 100 µM: 13.9%
  remaining activity at […]: 103% and 109%
[4]; [12]
  IC50: 24 µM
[5]
  viability at 48 h, 2.08 µM: 101%
  viability at 48 h, 8.33 µM: 97%
  viability at 48 h, 16.65 µM: 94.8%
[6]
  inhibition at […]: 11.2%
[6]; duplicate wells
  inhibition at 2.08 µM: 11.2%
[6]; Severe acute respiratory syndrome coronavirus 2, Vero C1008, read-out: cytopathic effect, % cell viability, [inhibitor] 8.33 uM, duplicate wells
  inhibition at 8.33 µM: 8.24%
[6]; Severe acute respiratory syndrome coronavirus 2, Vero C1008, read-out: cytopathic effect, % cell viability, [inhibitor] 16.65 uM, duplicate wells
  inhibition at 16.65 µM: 2.95%
